Measured values taken from patent publication US10314821B2, “Crystalline forms of 4-cyano-N-(2-(4,4-dimethylcyclohex-1-en-1-yl)-6-(2,2,6,6-tetramethyltetrahydro-2H-pyran-4-yl)pyridin-3-yl)-1H-imidazole-2-carboxamide” (Janssen Pharmaceutica NV, priority 2016, dated 2019).

Experiments:
Format in all cases: physicochemical
[1] = Visual solubility of Compound A, Form I in solvents; conditions: 50 mg in 10 mL, stirred, heated to 40° C.; for solubility: organic solvent or mixture, thermodynamic from solid
Excerpt: An automated solid-state form screening of Compound A was done using a binary solvent system. Screening experiments consisted of an array of 13 solvents (water, methanol, ethanol, acetone, acetonitrile, isopropyl alcohol, ethyl acetate, toluene, tetrahydrofuran (THF), dichloromethane, 2-butanone (MEK), 1-butanol, and heptane) under slow evaporation crystallization conditions. Specifically, saturated solutions of Compound A (prepared as described in Example 1 above) in 13 different solvents were prepared by adding solid powder of Compound A, Form I (50 mg, prepared as described in Example 1 above) and the selected solvent to 20 mL vials. The resulting solutions were stirred and heated to 40° C. All preparations dissolved quickly except in water, toluene, and heptane. Table 1 provides a summary of the visual solubility of Compound A, Form I in the noted solvents.

[2] = Competitive slurry studies in water, form by XRPD
Protocol: Competitive slurry studies of Compound A, Forms II, IIA, IIB, III, IV, V, and VI were conducted at RT (room temperature, about 20° C.) and 50° C. in water. […] A small portion of the slurry was transferred to 50° C. after 2 days and analyzed using powder X-ray after being slurred at 50° C. for 2 hours (where a sample of the slurry was placed on an XRPD sample holder, the solvent allowed to evaporate under ambient conditions to yield a residue, and an XRPD measured for the residue). Complete conversion to Form I took place within 2 hours of heating.

[3] = Slurry studies in organic solvents, form by XRPD
Protocol: Small scale saturated solutions of Compound A, Form I (prepared as described in Example 1 above) in the organic solvents noted in Example 2, except water, toluene, or heptane, were prepared as follows. Compound A, Form I (5-10 mg) was added to 2 mL HPLC vials and the selected solvent (50 μL) was added. The resulting slurries were stirred at 300 rpm for up to 1 day. At 1 hour and 1 day time-points, a sample of each slurry was placed on an XRPD sample holder and the solvent evaporated under ambient conditions to yield a solid residue which was then analyzed by X-ray powder diffraction.

[4] = Moisture sorption analysis (DVS)
Protocol: The moisture sorption analysis was performed using a Hiden Isochema system Model IGAsorp. The sample was run in a stainless-steel mesh crucible. The sample was initially dried at 60° C. for 30 minutes then the moisture profile was evaluated by monitoring vapor adsorption/desorption over the range of 0 to 90% relative humidity at 25° C. The moisture profile consisted of 2 cycles of vapor adsorption/desorption.

[5] = Hygroscopicity and water solubility by USP methods; conditions: isolated solid, freebase
Protocol: The isolated solid (Compound A, as a freebase) was a white crystalline solid, hygroscopic and insoluble in water as determined by USP methods. […] The XRD for Form I of Compound A differed from the XRD of a sample of the HCl salt of Compound A (e.g., FIG. 15). […] (equivalent to 0.23 mole of water) due to surface water loss and 0.5% between 182° C. and 219° C. due to melting/decomposition (as shown in FIG. 12). This differed from the TGA spectrum of the HCl salt of Compound A (e.g., FIG. 17).

[6] = at the end of a second moisture sorption-desorption cycle

## CC1(C)CC=C(c2nc(C3CC(C)(C)OC(C)(C)C3)ccc2NC(=O)c2nc(C#N)c[nH]2)CC1 [Compound A, Form I, 4-cyano-N-[2-(4,4-dimethylcyclohex-1-en-1-yl)-6-(2,2,6,6-tetramethyltetrahydro-2H-pyran-4-yl)pyridine-3-yl]-1H-imidazole-2-carboxamide]
[1]; 1-Butanol
  Visual Solubility: Dissolve
  solubility: > 5000 µg/mL
[1]; Acetone
  Visual Solubility: Dissolve
  solubility: > 5000 µg/mL
[1]; Acetonitrile
  Visual Solubility: Dissolve
  solubility: > 5000 µg/mL
[1]; Dichloromethane
  Visual Solubility: Dissolve
  solubility: > 5000 µg/mL
[1]; Ethanol
  Visual Solubility: Dissolve
  solubility: > 5000 µg/mL
[1]; Ethyl Acetate
  Visual Solubility: Dissolve
  solubility: > 5000 µg/mL
[1]; Heptane
  Visual Solubility: Suspension
[1]; IPA (isopropyl alcohol), IPA
  solubility: > 5000 µg/mL
[1]; IPA
  Visual Solubility: Dissolve
[1]; Methanol
  Visual Solubility: Dissolve
  solubility: > 5000 µg/mL
[1]; MethylEthylKetone (MEK)
  Visual Solubility: Dissolve
[1]; THF
  Visual Solubility: Dissolve
[1]; Toluene
  Visual Solubility: Suspension
[1]; Water
  Visual Solubility: Suspension
[1]; methyl ethyl ketone (MEK, 2-butanone), MethylEthylKetone (MEK)
  solubility: > 5000 µg/mL
[1]; tetrahydrofuran (THF), THF
  solubility: > 5000 µg/mL
[2]; as indicated by competitive slurry, hypothesized
  Relative thermodynamic stability of polymorphs: most thermodynamically stable polymorph
[3]; 1-Butanol slurry
  Saturated Conc.: 90 mg/mL
[3]; Acetone slurry
  Saturated Conc.: 130 mg/mL
[3]; Acetonitrile slurry
  Saturated Conc.: 80 mg/mL
[3]; DCM (dichloromethane) slurry
  Saturated Conc.: 210 mg/mL
[3]; Ethanol slurry
  Saturated Conc.: 110 mg/mL
[3]; Ethyl Acetate slurry
  Saturated Conc.: 120 mg/mL
[3]; IPA (isopropyl acetate) slurry
  Saturated Conc.: 95 mg/mL
[3]; Methanol slurry
  Saturated Conc.: 80 mg/mL
[3]; THF (tetrahydrofuran) slurry
  Saturated Conc.: 420 mg/mL
[3]; all solvent slurries except THF and DCM
  XRPD pattern of solids isolated from solvent slurries: consistent with Form I
[4]; 0 to 90% relative humidity at 25° C.
  Hygroscopicity by DVS: hygroscopic
[4]; 2 cycles of adsorption/desorption
  Crystalline form upon humidity cycling (XRPD before and after DVS): did not change
[4]; [6]
  Moisture retained: 1.8%
  Moisture retained, equivalent mole of water: 0.47 mole of water
[4]; up to 90% RH, 25° C.
  Moisture adsorption: 41.8%
[5]
  Hygroscopicity: hygroscopic
  Solubility in water: insoluble

## CC1(C)CC=C(c2nc(C3CC(C)(C)OC(C)(C)C3)ccc2NC(=O)c2nc(C#N)c[nH]2)CC1 [Compound A, Form II, 4-cyano-N-[2-(4,4-dimethylcyclohex-1-en-1-yl)-6-(2,2,6,6-tetramethyltetrahydro-2H-pyran-4-yl)pyridine-3-yl]-1H-imidazole-2-carboxamide]
[2]; competitive slurry in water at RT (about 20° C.)
  Time to complete conversion to Form I: 3 days
